From ChEMBL document CHEMBL2440076, “New triarylpyrazoles as broad-spectrum anticancer agents: design, synthesis, and biological evaluation” (Eur J Med Chem, 2013)

Experiments:
Assay type in all cases: functional
MDA-MB-468 = assay: Growth inhibition of human MDA-MB-468 cells assessed as cell growth at 5X10'-6 M after 48 hrs by sulforhodamine B assay; details: MDA-MB-468, 48 h, read-out: Activity
[1] = Growth inhibition of human Hs 578T cells assessed as cell growth at 5X10'-6 M after 48 hrs by sulforhodamine B assay; details: read-out: Activity
IGROV-1 [2] = assay: Growth inhibition of human IGROV1 cells assessed as cell growth at 5X10'-6 M after 48 hrs by sulforhodamine B assay; details: IGROV-1, 48 h, read-out: Activity
M14 = assay: Growth inhibition of human M14 cells assessed as cell growth at 5X10'-6 M after 48 hrs by sulforhodamine B assay; details: M14, 48 h, read-out: Activity
NCI-H226 = assay: Growth inhibition of human NCI-H226 cells assessed as cell growth at 5X10'-9 M after 48 hrs by sulforhodamine B assay; details: NCI-H226, 48 h, read-out: Activity
HOP-62 = assay: Growth inhibition of human HOP62 cells assessed as cell growth at 5X10'-9 M after 48 hrs by sulforhodamine B assay; details: HOP-62, 48 h, read-out: Activity
A549 = assay: Growth inhibition of human A549/ATCC cells assessed as cell growth at 5X10'-9 M after 48 hrs by sulforhodamine B assay; details: A549, 48 h, read-out: Activity
MOLT-4 [3] = assay: Growth inhibition of human MOLT4 cells assessed as cell growth at 5X10'-9 M after 48 hrs by sulforhodamine B assay; details: MOLT-4, 48 h, read-out: Activity
CCRF-CEM [4] = assay: Growth inhibition of human CCRF-CEM cells assessed as cell growth at 5X10'-9 M after 48 hrs by sulforhodamine B assay; details: read-out: Activity
LOX IMVI = assay: Growth inhibition of human LOXIMVI cells assessed as cell growth at 5X10'-6 M after 48 hrs by sulforhodamine B assay; details: read-out: Activity
SF-295 = assay: Growth inhibition of human SF295 cells assessed as cell growth at 5X10'-6 M after 48 hrs by sulforhodamine B assay; details: SF-295, 48 h, read-out: Activity
NCI-H322M = assay: Growth inhibition of human NCI-H322M cells assessed as cell growth at 5X10'-6 M after 48 hrs by sulforhodamine B assay; details: read-out: Activity
SR = assay: Growth inhibition of human SR cells assessed as cell growth at 5X10'-6 M after 48 hrs by sulforhodamine B assay; details: read-out: Activity
K562 [5] = assay: Growth inhibition of human K562 cells assessed as cell growth at 5X10'-6 M after 48 hrs by sulforhodamine B assay; details: K562, 48 h, read-out: Activity
PC-3 = assay: Growth inhibition of human PC3 cells assessed as cell growth at 5X10'-7 M after 48 hrs by sulforhodamine B assay; details: PC-3, 48 h, read-out: Activity
OVCAR-4 [6] = assay: Growth inhibition of human OVCAR4 cells assessed as cell growth at 5X10'-7 M after 48 hrs by sulforhodamine B assay; details: OVCAR-4, 48 h, read-out: Activity
COLO 205 = assay: Growth inhibition of human COLO205 cells assessed as cell growth at 5X10'-7 M after 48 hrs by sulforhodamine B assay; details: COLO 205, 48 h, read-out: Activity
MOLT-4 [7] = assay: Growth inhibition of human MOLT4 cells assessed as cell growth at 5X10'-7 M after 48 hrs by sulforhodamine B assay; details: MOLT-4, 48 h, read-out: Activity
[8] = Growth inhibition of human Hs 578T cells assessed as cell growth at 5X10'-8 M after 48 hrs by sulforhodamine B assay; details: read-out: Activity
MDA-MB-231 [9] = assay: Growth inhibition of human MDA-MB-231 cells assessed as cell growth at 5X10'-8 M after 48 hrs by sulforhodamine B assay; details: MDA-MB-231, 48 h, read-out: Activity
CAKI-1 [10] = assay: Growth inhibition of human CAKI-1 cells assessed as cell growth at 5X10'-8 M after 48 hrs by sulforhodamine B assay; details: CAKI-1, 48 h, read-out: Activity
A498 [11] = assay: Growth inhibition of human A498 cells assessed as cell growth at 5X10'-8 M after 48 hrs by sulforhodamine B assay; details: A498, 48 h, read-out: Activity
OVCAR-3 [12] = assay: Growth inhibition of human OVCAR3 cells assessed as cell growth at 5X10'-8 M after 48 hrs by sulforhodamine B assay; details: OVCAR-3, 48 h, read-out: Activity
IGROV-1 [13] = assay: Growth inhibition of human IGROV1 cells assessed as cell growth at 5X10'-8 M after 48 hrs by sulforhodamine B assay; details: IGROV-1, 48 h, read-out: Activity
SW-620 = assay: Growth inhibition of human SW620 cells assessed as cell growth at 5X10'-8 M after 48 hrs by sulforhodamine B assay; details: SW-620, 48 h, read-out: Activity
UO-31 = assay: Growth inhibition of human UO31 cells assessed as cell growth at 5X10'-5 M after 48 hrs by sulforhodamine B assay; details: UO-31, 48 h, read-out: Activity
ACHN = assay: Growth inhibition of human ACHN cells assessed as cell growth at 5X10'-5 M after 48 hrs by sulforhodamine B assay; details: read-out: Activity
OVCAR-4 [14] = assay: Growth inhibition of human OVCAR4 cells assessed as cell growth at 5X10'-5 M after 48 hrs by sulforhodamine B assay; details: OVCAR-4, 48 h, read-out: Activity
OVCAR-3 [15] = assay: Growth inhibition of human OVCAR3 cells assessed as cell growth at 5X10'-5 M after 48 hrs by sulforhodamine B assay; details: OVCAR-3, 48 h, read-out: Activity
HCT-116 = assay: Growth inhibition of human HCT116 cells assessed as cell growth at 5X10'-8 M after 48 hrs by sulforhodamine B assay; details: HCT-116, 48 h, read-out: Activity
NCI-H23 = assay: Growth inhibition of human NCI-H23 cells assessed as cell growth at 5X10'-8 M after 48 hrs by sulforhodamine B assay; details: NCI-H23, 48 h, read-out: Activity
K562 [16] = assay: Growth inhibition of human K562 cells assessed as cell growth at 5X10'-8 M after 48 hrs by sulforhodamine B assay; details: K562, 48 h, read-out: Activity
CCRF-CEM [17] = assay: Growth inhibition of human CCRF-CEM cells assessed as cell growth at 5X10'-8 M after 48 hrs by sulforhodamine B assay; details: read-out: Activity
T47D = assay: Growth inhibition of human T47D cells assessed as cell growth at 5X10'-9 M after 48 hrs by sulforhodamine B assay; details: read-out: Activity
MDA-MB-231 [18] = assay: Growth inhibition of human MDA-MB-231 cells assessed as cell growth at 5X10'-9 M after 48 hrs by sulforhodamine B assay; details: MDA-MB-231, 48 h, read-out: Activity
CAKI-1 [19] = assay: Growth inhibition of human CAKI-1 cells assessed as cell growth at 5X10'-9 M after 48 hrs by sulforhodamine B assay; details: CAKI-1, 48 h, read-out: Activity
A498 [20] = assay: Growth inhibition of human A498 cells assessed as cell growth at 5X10'-9 M after 48 hrs by sulforhodamine B assay; details: A498, 48 h, read-out: Activity
U-251 = assay: Growth inhibition of human U251 cells assessed as cell growth at 5X10'-9 M after 48 hrs by sulforhodamine B assay; details: U-251, 48 h, read-out: Activity

SMILES	growth at 5 µM (MDA-MB-468)	growth at 5 µM [1]	growth at 5 µM (IGROV-1 [2])	growth at 5 µM (M14)	growth at 0.005 µM (NCI-H226)	growth at 0.005 µM (HOP-62)	growth at 0.005 µM (A549)	growth at 0.005 µM (MOLT-4 [3])	growth at 0.005 µM (CCRF-CEM [4])	growth at 5 µM (LOX IMVI)	growth at 5 µM (SF-295)	growth at 5 µM (NCI-H322M)	growth at 5 µM (SR)	growth at 5 µM (K562 [5])	growth at 0.5 µM (PC-3)	growth at 0.5 µM (OVCAR-4 [6])	growth at 0.5 µM (COLO 205)	growth at 0.5 µM (MOLT-4 [7])	growth at 0.05 µM [8]	growth at 0.05 µM (MDA-MB-231 [9])	also measured
COc1cc(-c2nn(-c3cccc(NC(=O)c4cccc(C(F)(F)F)c4)c3)cc2-c2ccncc2)ccc1Cl	-4%	2%	22%	11%	95%	95%	102%	99%	100%	8%	-24%	52%	-3%	9%	71%	81%	102%	91%	91%	97%	growth at 0.05 µM (CAKI-1 [10]): 98%; growth at 0.05 µM (A498 [11]): 80%; growth at 0.05 µM (OVCAR-3 [12]): 101%; growth at 0.05 µM (IGROV-1 [13]): 95%; growth at 0.05 µM (SW-620): 98%; growth at 50 µM (UO-31): 19%; growth at 50 µM (ACHN): 14%; growth at 50 µM (OVCAR-4 [14]): 29%; growth at 50 µM (OVCAR-3 [15]): -38%; growth at 0.05 µM (HCT-116): 96%; growth at 0.05 µM (NCI-H23): 90%; growth at 0.05 µM (K562 [16]): 94%; growth at 0.05 µM (CCRF-CEM [17]): 98%; growth at 0.005 µM (T47D): 92%; growth at 0.005 µM (MDA-MB-231 [18]): 102%; growth at 0.005 µM (CAKI-1 [19]): 94%; growth at 0.005 µM (A498 [20]): 78%; growth at 0.005 µM (U-251): 94%
COc1cc(-c2nn(-c3cccc(NC(=O)Nc4cccc(C(F)(F)F)c4)c3)cc2-c2ccncc2)ccc1Cl	-33%	4%	-22%	-54%	100%	93%	97%	94%	104%	-75%	-71%	-2%	-24%	3%	44%	73%	93%	74%	96%	99%	growth at 0.05 µM (CAKI-1 [10]): 98%; growth at 0.05 µM (A498 [11]): 87%; growth at 0.05 µM (OVCAR-3 [12]): 102%; growth at 0.05 µM (IGROV-1 [13]): 96%; growth at 0.05 µM (SW-620): 94%; growth at 50 µM (UO-31): -35%; growth at 50 µM (ACHN): -7%; growth at 50 µM (OVCAR-4 [14]): -3%; growth at 50 µM (OVCAR-3 [15]): -54%; growth at 0.05 µM (HCT-116): 99%; growth at 0.05 µM (NCI-H23): 95%; growth at 0.05 µM (K562 [16]): 95%; growth at 0.05 µM (CCRF-CEM [17]): 102%; growth at 0.005 µM (T47D): 95%; growth at 0.005 µM (MDA-MB-231 [18]): 103%; growth at 0.005 µM (CAKI-1 [19]): 94%; growth at 0.005 µM (A498 [20]): 92%; growth at 0.005 µM (U-251): 97%
O=C(Nc1cccc(-n2cc(-c3ccncc3)c(-c3ccc(Cl)c(O)c3)n2)c1)c1ccc(N2CCOCC2)c(C(F)(F)F)c1	63%	25%	68%	18%	98%	91%	102%	99%	98%	10%	13%	76%	18%	11%	85%	112%	111%	87%	87%	93%	growth at 0.05 µM (CAKI-1 [10]): 99%; growth at 0.05 µM (A498 [11]): 83%; growth at 0.05 µM (OVCAR-3 [12]): 100%; growth at 0.05 µM (IGROV-1 [13]): 95%; growth at 0.05 µM (SW-620): 104%; growth at 50 µM (UO-31): -5%; growth at 50 µM (ACHN): 8%; growth at 50 µM (OVCAR-4 [14]): 46%; growth at 50 µM (OVCAR-3 [15]): 11%; growth at 0.05 µM (HCT-116): 97%; growth at 0.05 µM (NCI-H23): 93%; growth at 0.05 µM (K562 [16]): 100%; growth at 0.05 µM (CCRF-CEM [17]): 100%; growth at 0.005 µM (T47D): 97%; growth at 0.005 µM (MDA-MB-231 [18]): 96%; growth at 0.005 µM (CAKI-1 [19]): 93%; growth at 0.005 µM (A498 [20]): 92%; growth at 0.005 µM (U-251): 101%
